The test system of the assay is c-Myc. The experiment in a line: c-Myc immunofluorescence assay. Format: cell-based, human. The note with it: A549 cells, 24 hours, anti-c-Myc immunofluorescence. The gist of the method: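 Read-out is imaged c-Myc immunofluorescence, nucleus-segmented, in A549 lung carcinoma cells exposed to compound dose series for 24 h after 48 h growth. Fixation 4% paraformaldehyde, Triton permeabilization, antibody staining at room temperature; EC50 from logistic fit of signal versus concentration.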
With `COc1ccc(-c2noc(N3CCC(C(=O)NC4(Cc5ccccc5)COC4)CC3)n2)cc1` [Compound 277, N-(3-benzyloxetan-3-yl)-1-(3-(4-methoxyphenyl)-1,2,4-oxadiazol-5-yl)piperidine-4-carboxamide], the “Myc Efficacy (−LogEC50)” value is “+ (+ >3 and <5)”.

For `COc1ccc(-c2noc(N3CCC(C(=O)NCC4CCc5ccccc5O4)CC3)n2)cc1` (stereo not drawn) [Compound 278, N-(chroman-2-ylmethyl)-1-(3-(4-methoxyphenyl)-1,2,4-oxadiazol-5-yl)piperidine-4-carboxamide], the “Myc Efficacy (−LogEC50)” value was “+ (+ >3 and <5)”.

With `CC[C@H](C)NC(=O)C1CCN(c2nc(-c3ccc(OC)cc3)no2)CC1` [Compound 279, (S)-N-(sec-butyl)-1-(3-(4-methoxyphenyl)-1,2,4-oxadiazol-5-yl)piperidine-4-carboxamide], the “Myc Efficacy (−LogEC50)” value is “+ (+ >3 and <5)”. For `COc1ccc(-c2noc(N3CCC(C(=O)NC(c4ccccn4)C4CC4)CC3)n2)cc1` (stereo not drawn) [Compound 280, N-(cyclopropyl(pyridin-2-yl)methyl)-1-(3-(4-methoxyphenyl)-1,2,4-oxadiazol-5-yl)piperidine-4-carboxamide] the value was “+ (+ >3 and <5)”; for `COc1ccc(-c2noc(N3CCC(C(=O)NCc4ccc5c(c4)CCO5)CC3)n2)cc1` [Compound 281, N-((2,3-dihydrobenzofuran-5-yl)methyl)-1-(3-(4-methoxyphenyl)-1,2,4-oxadiazol-5-yl)piperidine-4-carboxamide], “+ (+ >3 and <5)”; for `COc1ccc(-c2noc(N3CCC(C(=O)NCCOc4ccccc4)CC3)n2)cc1` [Compound 282, 1-(3-(4-methoxyphenyl)-1,2,4-oxadiazol-5-yl)-N-(2-phenoxyethyl)piperidine-4-carboxamide], “+ (+ >3 and <5)”. For `COc1ccc(-c2noc(N3CCC(C(=O)NC4COc5ccccc54)CC3)n2)cc1` (stereo not drawn) [Compound 283, N-(2,3-dihydrobenzofuran-3-yl)-1-(3-(4-methoxyphenyl)-1,2,4-oxadiazol-5-yl)piperidine-4-carboxamide] the value was “+ (+ >3 and <5)”; for `COc1ccc(-c2noc(N3CCC(C(=O)NCc4ccccc4OC(F)F)CC3)n2)cc1` [Compound 284, N-(2-(difluoromethoxy)benzyl)-1-(3-(4-methoxyphenyl)-1,2,4-oxadiazol-5-yl)piperidine-4-carboxamide], “+ (+ >3 and <5)”. The value for `COc1ccc(-c2noc(N3CCC(C(=O)NCc4cc5ccccc5[nH]4)CC3)n2)cc1` [Compound 285, N-((1H-indol-2-yl)methyl)-1-(3-(4-methoxyphenyl)-1,2,4-oxadiazol-5-yl)piperidine-4-carboxamide] was “++ (++ ≥5 and <6)”; that for `C#CCCC1(CCN2CCC(CNC(=O)C3CCN(c4nc(-c5ccc(OC)cc5)no4)CC3)C2)N=N1` (stereo not drawn) [Compound 286, N-((1-(2-(3-(but-3-yn-1-yl)-3H-diazirin-3-yl)ethyl)pyrrolidin-3-yl)methyl)-1-(3-(4-methoxyphenyl)-1,2,4-oxadiazol-5-yl)piperidine-4-carboxamide] was “++ (++ ≥5 and <6)”; that for `C#CCCC1(CCOc2ccc(-c3noc(N4CCC(C(=O)NCC5CCN(Cc6ccc(C)cc6)C5)CC4)n3)cc2)N=N1` (stereo not drawn) [Compound 287, 1-(3-(4-(2-(3-(but-3-yn-1-yl)-3H-diazirin-3-yl)ethoxy)phenyl)-1,2,4-oxadiazol-5-yl)-N-((1-(4-methylbenzyl)pyrrolidin-3-yl)methyl)piperidine-4-carboxamide] was “+++ (+++ ≥6)”.

With `C#CCCC1(CCOc2cccc(-c3noc(N4CCC(C(=O)NCC5CCN(Cc6ccc(C)cc6)C5)CC4)n3)c2)N=N1` (stereo not drawn) [Compound 288, 1-(3-(3-(2-(3-(but-3-yn-1-yl)-3H-diazirin-3-yl)ethoxy)phenyl)-1,2,4-oxadiazol-5-yl)-N-((1-(4-methylbenzyl)pyrrolidin-3-yl)methyl)piperidine-4-carboxamide], the “Myc Efficacy (−LogEC50)” value is “++ (++ ≥5 and <6)”. On to `COc1ccc(-c2noc(N3CCC(C(=O)NC4CCOC5(CCCCC5)C4)CC3)n2)cc1` (stereo not drawn) [Compound 289, 1-(3-(4-methoxyphenyl)-1,2,4-oxadiazol-5-yl)-N-(1-oxaspiro[5.5]undecan-4-yl)piperidine-4-carboxamide], for which the “Myc Efficacy (−LogEC50)” value is “+ (+ >3 and <5)”. For `COc1ccc(-c2noc(N3CCC(C(=O)NC4COC5(CCCCC5)C4)CC3)n2)cc1` (stereo not drawn) [Compound 290, 1-(3-(4-methoxyphenyl)-1,2,4-oxadiazol-5-yl)-N-(1-oxaspiro[4.5]decan-3-yl)piperidine-4-carboxamide] the value was “+ (+ >3 and <5)”. For `COc1ccc(-c2noc(N3CCC(C(=O)NC4(C5CC5)CCOCC4)CC3)n2)cc1` [Compound 291, N-(4-cyclopropyltetrahydro-2H-pyran-4-yl)-1-(3-(4-methoxyphenyl)-1,2,4-oxadiazol-5-yl)piperidine-4-carboxamide] the value was “+ (+ >3 and <5)”. Turning to `COc1ccc(-c2noc(N3CCC(C(=O)NC4(C5CCCCC5)CC4)CC3)n2)cc1` [Compound 292, N-(1-cyclohexylcyclopropyl)-1-(3-(4-methoxyphenyl)-1,2,4-oxadiazol-5-yl)piperidine-4-carboxamide], the “Myc Efficacy (−LogEC50)” value is “+ (+ >3 and <5)”. Regarding `COc1ccc(-c2noc(N3CCC(C(=O)NC[C@@H]4CCCC[C@H]4O)CC3)n2)cc1` [Compound 293, N-(((1S,2R)-2-hydroxycyclohexyl)methyl)-1-(3-(4-methoxyphenyl)-1,2,4-oxadiazol-5-yl)piperidine-4-carboxamide], the “Myc Efficacy (−LogEC50)” value was “+ (+ >3 and <5)”. With `COc1ccc(-c2noc(N3CCC(C(=O)NC4CC(O)C4(C)C)CC3)n2)cc1` (stereo not drawn) [Compound 294, N-(3-hydroxy-2,2-dimethylcyclobutyl)-1-(3-(4-methoxyphenyl)-1,2,4-oxadiazol-5-yl)piperidine-4-carboxamide], the “Myc Efficacy (−LogEC50)” value was “+ (+ >3 and <5)”. The value for `COc1ccc(-c2noc(N3CCC(C(=O)N[C@H]4[C@@H]5CN(C)C[C@@H]54)CC3)n2)cc1` [Compound 295, 1-(3-(4-methoxyphenyl)-1,2,4-oxadiazol-5-yl)-N-((1R,5S,6s)-3-methyl-3-azabicyclo[3.1.0]hexan-6-yl)piperidine-4-carboxamide] was “+ (+ >3 and <5)”.

Turning to `COc1ccc(-c2noc(N3CCC(C(=O)NCC4(N(C)C)Cc5ccccc5C4)CC3)n2)cc1` [Compound 296, N-((2-(dimethylamino)-2,3-dihydro-1H-inden-2-yl)methyl)-1-(3-(4-methoxyphenyl)-1,2,4-oxadiazol-5-yl)piperidine-4-carboxamide], the “Myc Efficacy (−LogEC50)” value was “+ (+ >3 and <5)”. For `COc1ccc(-c2noc(N3CCC(C(=O)NC(C)C(C)(C)O)CC3)n2)cc1` (stereo not drawn) [Compound 297, N-(3-hydroxy-3-methylbutan-2-yl)-1-(3-(4-methoxyphenyl)-1,2,4-oxadiazol-5-yl)piperidine-4-carboxamide], the “Myc Efficacy (−LogEC50)” value was “+ (+ >3 and <5)”. On to `COc1ccc(-c2noc(N3CCC(C(=O)NC4(c5nc(C)cs5)CCC4)CC3)n2)cc1` [Compound 298, 1-(3-(4-methoxyphenyl)-1,2,4-oxadiazol-5-yl)-N-(1-(4-methylthiazol-2-yl)cyclobutyl)piperidine-4-carboxamide], for which the “Myc Efficacy (−LogEC50)” value was “+ (+ >3 and <5)”. For `COc1ccc(-c2noc(N3CCC(C(=O)NC(CO)CC(F)(F)F)CC3)n2)cc1` (stereo not drawn) [Compound 299, 1-(3-(4-methoxyphenyl)-1,2,4-oxadiazol-5-yl)-N-(4,4,4-trifluoro-1-hydroxybutan-2-yl)piperidine-4-carboxamide] the value was “+ (+ >3 and <5)”; for `COc1ccc(-c2noc(N3CCC(C(=O)NCc4cccc(OC(C)C)c4)CC3)n2)cc1` [Compound 300, N-(3-isopropoxybenzyl)-1-(3-(4-methoxyphenyl)-1,2,4-oxadiazol-5-yl)piperidine-4-carboxamide], “++ (++ ≥5 and <6)”; for `COc1ccc(-c2noc(N3CCC(C(=O)NCC4CCCc5cccnc54)CC3)n2)cc1` (stereo not drawn) [Compound 301, 1-(3-(4-methoxyphenyl)-1,2,4-oxadiazol-5-yl)-N-((5,6,7,8-tetrahydroquinolin-8-yl)methyl)piperidine-4-carboxamide], “+ (+ >3 and <5)”. For `COc1ccc(-c2noc(N3CCC(C(=O)NC4CCN(C)c5ccccc54)CC3)n2)cc1` (stereo not drawn) [Compound 302, 1-(3-(4-methoxyphenyl)-1,2,4-oxadiazol-5-yl)-N-(1-methyl-1,2,3,4-tetrahydroquinolin-4-yl)piperidine-4-carboxamide] the value was “+ (+ >3 and <5)”; for `COc1ccc(-c2noc(N3CCC(C(=O)NCC4OCCc5ccccc54)CC3)n2)cc1` (stereo not drawn) [Compound 303, N-(isochroman-1-ylmethyl)-1-(3-(4-methoxyphenyl)-1,2,4-oxadiazol-5-yl)piperidine-4-carboxamide], “+ (+ >3 and <5)”; for `COc1ccc(-c2noc(N3CCC(C(=O)NCC(c4ccccc4)N(C)C)CC3)n2)cc1` (stereo not drawn) [Compound 304, N-(2-(dimethylamino)-2-phenylethyl)-1-(3-(4-methoxyphenyl)-1,2,4-oxadiazol-5-yl)piperidine-4-carboxamide], “+ (+ >3 and <5)”. For `COc1ccc(-c2noc(N3CCC(C(=O)NCC(O)Cc4ccccc4)CC3)n2)cc1` (stereo not drawn) [Compound 305, N-(2-hydroxy-3-phenylpropyl)-1-(3-(4-methoxyphenyl)-1,2,4-oxadiazol-5-yl)piperidine-4-carboxamide] the value was “+ (+ >3 and <5)”; for `COc1ccc(-c2noc(N3CCC(C(=O)Nc4ccc(C5COC5)cc4)CC3)n2)cc1` [Compound 306, 1-(3-(4-methoxyphenyl)-1,2,4-oxadiazol-5-yl)-N-(4-(oxetan-3-yl)phenyl)piperidine-4-carboxamide], “+ (+ >3 and <5)”.

Values taken from US12344600B2, “c-Myc mRNA translation modulators and uses thereof in the treatment of cancer” (Anima Biotech Inc., priority 2022, dated 2025).
